Active and inactive are the calls of the source.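 Rule for the calls: active = in confirmatory dose-response testing, peak deubiquitinase inhibition of 30% or more; inactive = the rest.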
Target: Ubiquitin carboxyl-terminal hydrolase 28 (Homo sapiens) (UniProt Q96RU2)
Assay: Concentration-response biochemical assay confirming initial hits as inhibitors of ubiquitin-specific protease 28 (AID 1645866)
Conditions: purified USP28, ubiquitin-rhodamine fluorescence, 30 min

Chain of Ubiquitin carboxyl-terminal hydrolase 28 (Homo sapiens) (Q96RU2 whole entry, looked up): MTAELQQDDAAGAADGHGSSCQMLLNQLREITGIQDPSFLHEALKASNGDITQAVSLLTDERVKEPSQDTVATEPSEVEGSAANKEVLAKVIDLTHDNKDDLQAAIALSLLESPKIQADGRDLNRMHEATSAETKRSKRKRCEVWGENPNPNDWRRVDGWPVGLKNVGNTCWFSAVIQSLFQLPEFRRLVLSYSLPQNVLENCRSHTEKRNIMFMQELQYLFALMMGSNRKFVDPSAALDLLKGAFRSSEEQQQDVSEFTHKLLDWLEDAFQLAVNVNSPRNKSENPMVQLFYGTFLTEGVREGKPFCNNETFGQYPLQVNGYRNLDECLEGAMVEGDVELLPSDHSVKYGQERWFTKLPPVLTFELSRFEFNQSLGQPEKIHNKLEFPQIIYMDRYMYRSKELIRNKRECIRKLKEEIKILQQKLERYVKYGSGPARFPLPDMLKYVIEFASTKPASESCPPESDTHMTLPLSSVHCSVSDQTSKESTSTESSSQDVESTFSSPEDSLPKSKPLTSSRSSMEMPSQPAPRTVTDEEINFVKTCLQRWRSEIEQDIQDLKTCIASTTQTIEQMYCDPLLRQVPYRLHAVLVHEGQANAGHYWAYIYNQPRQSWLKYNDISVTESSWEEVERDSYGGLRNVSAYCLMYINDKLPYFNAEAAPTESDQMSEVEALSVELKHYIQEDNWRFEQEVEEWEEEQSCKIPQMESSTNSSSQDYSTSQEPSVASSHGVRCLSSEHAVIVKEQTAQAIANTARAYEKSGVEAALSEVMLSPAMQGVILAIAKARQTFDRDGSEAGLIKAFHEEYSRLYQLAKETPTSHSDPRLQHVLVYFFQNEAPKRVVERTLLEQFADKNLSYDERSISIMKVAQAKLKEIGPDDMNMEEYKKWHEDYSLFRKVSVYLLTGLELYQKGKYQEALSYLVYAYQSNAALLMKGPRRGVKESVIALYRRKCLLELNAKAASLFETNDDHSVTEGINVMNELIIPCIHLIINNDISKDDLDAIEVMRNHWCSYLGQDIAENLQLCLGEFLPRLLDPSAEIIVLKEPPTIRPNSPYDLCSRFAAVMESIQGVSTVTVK

Compound	IC50
COc1cc(=O)c(C(=O)Nc2ccc(C#N)cc2)nn1-c1cccc(F)c1	20.7 µM
O=c1c2ccccc2oc2nc(-c3cccs3)n(-c3ccccc3)c(=O)c12	2.12 µM
O=C(c1cscn1)N1CCC2(CC1)CC1(CO2)Nc2ccccc2-n2cccc21 (stereo not given)	> 50 µM (inactive)
CCOc1ccc(CC(=O)Nc2ccc(-c3cn4cccnc4n3)cc2)cc1	14.6 µM
O=C(CCCC(=O)c1ccccc1)Nc1ccc(F)cc1	35 µM
O=C(NC1CCS(=O)(=O)C1)c1ccc(N2CCC(Cc3ccccc3)CC2)nn1 (stereo not given)	> 50 µM (inactive)
Cc1ccc(NC(=O)c2cc(=O)n(C)c3c2c(=O)n(C)c(=O)n3C)c(C)c1	> 50 µM (inactive)
Cc1cccc(-c2nc3n(CC(=O)Nc4ccc(Cl)cc4)c(C)cc(=O)n3n2)c1	0.985 µM
Nc1c(C(=O)Nc2ccc3c(c2)OCO3)sc2nc(-c3cccnc3)ccc12	1.98 µM
O=C(COC(=O)c1n[nH]c2ccccc12)Nc1ccc(N2CCCCC2)cc1	25.9 µM
Cc1ccc2cc3c(nc2n1)CCN(Cc1ccc(F)cc1)C3	> 50 µM (inactive)
CCOC(=O)c1ccc(NC(=O)COc2cccc3c2CCN(CC)C3=O)cc1	5.4 µM
O=C(O)c1nccnc1C(=O)N1CCc2ccccc2C1	> 50 µM (inactive)
O=C(c1ccsc1)N1CCC2(C1)Nc1cccnc1NC2=NC1CCCC1 (stereo not given)	> 50 µM (inactive)
Cc1ccn(-c2ccc(NC(=O)C3CCCCC3)cc2)n1	22.6 µM
COc1ccccc1-c1nc2c3c(ncn2n1)Oc1c(c(C)nn1-c1ccccc1)C3c1cccnc1 (stereo not given)	40.9 µM
FC(F)(F)c1cccc(CSc2ccc3nnc(-c4ccccn4)n3n2)c1	1.75 µM
Nc1c(C(=O)c2cccs2)oc2nc(-c3ccccc3)cc(-c3ccco3)c12	> 50 µM (inactive)
COC1=CC(=O)c2c(O)c3c(c(C)c2C1=O)C[C@@]1(O)[C@H](O[C@H]2CC[C@H](O[C@H]4C[C@@](C)(O)[C@H](OC(=O)c5c(C)ccc(C)c5O)[C@H](C)O4)[C@@H](C)O2)C(=O)C(C(C)=O)=C(O)[C@@]1(O)C3=O	2.27 µM
CC(=O)N1CCOc2cc(S(=O)(=O)N3CCCC3c3cc(C)no3)ccc21 (stereo not given)	22.9 µM
O=C(Nc1ccc(N2CCOCC2)cc1)c1cc(=O)[nH]c2ccccc12	25.4 µM
COc1cc(O)c2c(c1)C1=CC(=O)C(O)=C[C@]1(C)OC2=O	30.1 µM
COc1cccc(NC(=O)C2C3C=CC4(O3)C2C(=O)N(CCc2ccccc2Cl)C4C(=O)NC2CCCCC2)c1 (stereo not given)	26.1 µM
Cc1nc2sc(C(=O)Nc3ccccc3Br)c(N)c2c(C)c1C	2.01 µM
Cc1nc(Nc2ncc(C)s2)cc(C2CN(C(=O)Cc3ccccc3)CCO2)n1 (stereo not given)	43.8 µM

Compound	IC50
COc1ccc(NC(=O)C2CCCN(S(=O)(=O)N3CCCCCC3)C2)cc1 (stereo not given)	21.8 µM
CC1(C)Cc2c(sc3nc(Cc4ccccc4)nc(SCC(=O)Nc4ccccc4)c23)CO1	2.4 µM
Nc1ccccc1SC(CC(=O)c1ccc(Cl)cc1)c1ccsc1 (stereo not given)	> 50 µM (inactive)
COc1cc2c(cc1NC(=O)c1ccc(-n3cnnn3)cc1)oc1ccccc12	1.33 µM
Cc1ccc(CN2CCCn3nc(C(=O)NCc4ccccc4C)cc3C2=O)cc1	45.2 µM
Cc1ccc(C(=O)Nc2ccc3c(c2)C(=O)N(C)c2ccccc2O3)cc1C	2.75 µM
Cc1cc(C(=O)Nc2ccc3nc(N4CCN(c5ncccn5)CC4)cc(C)c3c2)ccc1[N+](=O)[O-]	14.2 µM
COc1ccc(NC(=O)Cn2c(CSc3ccc(C)cc3)nc3ccccc32)cc1	20.8 µM
Cc1cc(O)cc2cc3c(c(O)c12)C(=O)CCC3O (stereo not given)	> 50 µM (inactive)
CC(=O)N1CCc2cc(S(=O)(=O)NCc3ccc(C)cc3)ccc21	> 50 µM (inactive)
O=C(O)COc1ccccc1/C=C1\CCc2c1nc1ccccc1c2C(=O)O	> 50 µM (inactive)
CCOc1ccc(NC(=O)Cn2cnc(S(=O)(=O)N3CCc4ccccc43)c2)cc1	27.6 µM
O=C(c1cnccn1)N1CCc2[nH]c3ccc(F)cc3c2C1	> 50 µM (inactive)
CCOC(=O)CSc1nnc(-c2cnn(-c3ccccc3)c2N)o1	19.9 µM
CCn1cnc2c(-c3ccccc3)cn(CC(=O)NCc3ccc4c(c3)OCO4)c2c1=O	10.4 µM
O=C(c1ccc2cc[nH]c2c1)N1CCC(Nc2cccnc2)C1 (stereo not given)	> 50 µM (inactive)
CCc1nc(SCC(=O)Nc2ccccc2Cl)c2oc3ccccc3c2n1	0.37 µM
Cc1cc(C(=O)NC2(O)C(=O)c3ccccc3C2=O)n(C)n1	19 µM
Cc1ccc(C2c3cccn3CCN2C(=O)Nc2ccccc2)cc1 (stereo not given)	> 50 µM (inactive)
C[C@H](NC(=O)Cc1ccccc1F)c1nc2cc(-c3ccccc3F)ncn2n1	> 50 µM (inactive)
CCOc1ccc(NC(=O)Cn2c(=O)n(CCCCCC(=O)NCc3ccc(F)cc3)c(=O)c3sccc32)cc1	1.95 µM
CCCCN1CC(C(=O)Nc2ccc(C(=O)Nc3ccc(F)c(Cl)c3)cc2)CC1=O (stereo not given)	34.2 µM
CCCCc1nc2sc3c(SCC(=O)NCc4ccccc4)ncnc3c2c2c1CCC2	39 µM
O=C(NCCc1ccccn1)c1cc(-c2ccc(Br)cc2)n[nH]1	13.8 µM
COc1cc2c(cc1OC)-c1cc(NCc3cc(OC)c(OC)c(OC)c3)nc(=O)n1CC2	> 50 µM (inactive)
